Measured values as given in the supplement of paper PMC10307832.

Experiments:
Assay in all cases: relative viability (nuclei count vs DMSO), 5 days (fraction); higher = more cells survive
RU-SKI 43 + Crizotinib = compound: CC[C@@H](C)CNCC(=O)N1CCC2=C([C@@H]1COC3=CC=CC(=C3)C)C=CS2 [RU-SKI 43] + C[C@@H](Oc1cc(-c2cnn(C3CCNCC3)c2)cnc1N)c1c(Cl)ccc(F)c1Cl [Crizotinib] (partner 1 µM)
How it was run: (§1)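 A single step with final 0.05% Triton X-100, 1% formaldehyde and 1 ug/ml Hoechst fixed the cells and stained nuclei 5 days after treatment. Lung cancer cell lines in 1536-well plates had been treated by pin tool the day after seeding with one drug alone or a fixed anchor-drug dose plus five library-drug doses (not always all listed) in √10 steps, and nuclei were counted on 4× images. Relative viability is the ratio of nuclei in treated wells to nuclei in vehicle wells, taken as the median of duplicate plates.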

RU-SKI 43 + Vorinostat = compound: CC[C@@H](C)CNCC(=O)N1CCC2=C([C@@H]1COC3=CC=CC(=C3)C)C=CS2 [RU-SKI 43] + O=C(CCCCCCC(=O)Nc1ccccc1)NO [Vorinostat] (partner 1 µM)
How it was run: as §1

MK-8033 + Olaparib = compound: Cn1cc(-c2cnc3ccc4ccc(CS(=O)(=O)NCc5ccccn5)cc4c(=O)c3c2)cn1 [MK-8033] + O=C(c1cc(Cc2n[nH]c(=O)c3ccccc23)ccc1F)N1CCN(C(=O)C2CC2)CC1 [Olaparib] (partner 8 µM)
How it was run: as §1

MK-8033 + Navitoclax = compound: Cn1cc(-c2cnc3ccc4ccc(CS(=O)(=O)NCc5ccccn5)cc4c(=O)c3c2)cn1 [MK-8033] + CC1(C)CCC(c2ccc(Cl)cc2)=C(CN2CCN(c3ccc(C(=O)NS(=O)(=O)c4ccc(N[C@H](CCN5CCOCC5)CSc5ccccc5)c(S(=O)(=O)C(F)(F)F)c4)cc3)CC2)C1 [Navitoclax] (partner 0.5 µM)
How it was run: as §1

NCI-H647 was tested, and the relative viability (RU-SKI 43 + Crizotinib; first compound 0.1 µM) was 1.29, the relative viability (RU-SKI 43 + Crizotinib; first compound 0.3162 µM) was 1.23 and the relative viability (RU-SKI 43 + Crizotinib; first compound 1 µM) was 1.15. For the same cell line, the relative viability (RU-SKI 43 + Crizotinib; first compound 3.162 µM) was 1.14, the relative viability (RU-SKI 43 + Crizotinib; first compound 10 µM) was 0.833 and the relative viability (RU-SKI 43 + Vorinostat; first compound 0.1 µM) was 0.543. It also gave a relative viability (RU-SKI 43 + Vorinostat; first compound 0.3162 µM) of 0.948, a relative viability (RU-SKI 43 + Vorinostat; first compound 1 µM) of 0.573 and a relative viability (RU-SKI 43 + Vorinostat; first compound 3.162 µM) of 0.731. The relative viability (RU-SKI 43 + Vorinostat; first compound 10 µM) was 0.527, the relative viability (MK-8033 + Olaparib; first compound 0.02 µM) was 0.7 and the relative viability (MK-8033 + Olaparib; first compound 0.06325 µM) was 0.476. It also gave a relative viability (MK-8033 + Olaparib; first compound 0.2 µM) of 0.479, a relative viability (MK-8033 + Olaparib; first compound 0.6325 µM) of 0.661 and a relative viability (MK-8033 + Olaparib; first compound 2 µM) of 0.515. For the same cell line, the relative viability (MK-8033 + Navitoclax; first compound 0.02 µM) was 1.11, the relative viability (MK-8033 + Navitoclax; first compound 0.06325 µM) was 1.01 and the relative viability (MK-8033 + Navitoclax; first compound 0.2 µM) was 1.09. The relative viability (MK-8033 + Navitoclax; first compound 0.6325 µM) was 1.04 and the relative viability (MK-8033 + Navitoclax; first compound 2 µM) was 0.999.
Work on A-427 yielded a relative viability (RU-SKI 43 + Crizotinib; first compound 0.1 µM) of 0.832, a relative viability (RU-SKI 43 + Crizotinib; first compound 0.3162 µM) of 0.809 and a relative viability (RU-SKI 43 + Crizotinib; first compound 1 µM) of 0.904. The relative viability (RU-SKI 43 + Crizotinib; first compound 10 µM) was 0.651, the relative viability (RU-SKI 43 + Vorinostat; first compound 0.1 µM) was 0.868 and the relative viability (RU-SKI 43 + Vorinostat; first compound 0.3162 µM) was 0.823. For the same cell line, the relative viability (RU-SKI 43 + Vorinostat; first compound 1 µM) was 0.933, the relative viability (RU-SKI 43 + Vorinostat; first compound 3.162 µM) was 0.873 and the relative viability (RU-SKI 43 + Vorinostat; first compound 10 µM) was 0.786. It also gave a relative viability (MK-8033 + Olaparib; first compound 0.02 µM) of 0.778, a relative viability (MK-8033 + Olaparib; first compound 0.06325 µM) of 0.722 and a relative viability (MK-8033 + Olaparib; first compound 0.2 µM) of 0.623. It also gave a relative viability (MK-8033 + Olaparib; first compound 0.6325 µM) of 0.818, a relative viability (MK-8033 + Olaparib; first compound 2 µM) of 0.676 and a relative viability (MK-8033 + Navitoclax; first compound 0.02 µM) of 0.967. The relative viability (MK-8033 + Navitoclax; first compound 0.06325 µM) was 0.869, the relative viability (MK-8033 + Navitoclax; first compound 0.2 µM) was 0.891 and the relative viability (MK-8033 + Navitoclax; first compound 0.6325 µM) was 0.912. The relative viability (MK-8033 + Navitoclax; first compound 2 µM) was 0.868.
HCC-366 was tested, and the relative viability (RU-SKI 43 + Crizotinib; first compound 0.1 µM) was 0.454, the relative viability (RU-SKI 43 + Crizotinib; first compound 0.3162 µM) was 0.392 and the relative viability (RU-SKI 43 + Crizotinib; first compound 1 µM) was 0.548. It also gave a relative viability (RU-SKI 43 + Crizotinib; first compound 3.162 µM) of 0.486, a relative viability (RU-SKI 43 + Crizotinib; first compound 10 µM) of 0.27 and a relative viability (RU-SKI 43 + Vorinostat; first compound 0.1 µM) of 0.276. The relative viability (RU-SKI 43 + Vorinostat; first compound 0.3162 µM) was 0.493, the relative viability (RU-SKI 43 + Vorinostat; first compound 1 µM) was 0.439 and the relative viability (RU-SKI 43 + Vorinostat; first compound 3.162 µM) was 0.438. The relative viability (RU-SKI 43 + Vorinostat; first compound 10 µM) was 0.328, the relative viability (MK-8033 + Olaparib; first compound 0.02 µM) was 0.361 and the relative viability (MK-8033 + Olaparib; first compound 0.06325 µM) was 0.344. The relative viability (MK-8033 + Olaparib; first compound 0.2 µM) was 0.328, the relative viability (MK-8033 + Olaparib; first compound 0.6325 µM) was 0.34 and the relative viability (MK-8033 + Olaparib; first compound 2 µM) was 0.323. It also gave a relative viability (MK-8033 + Navitoclax; first compound 0.02 µM) of 1.02, a relative viability (MK-8033 + Navitoclax; first compound 0.06325 µM) of 1.11 and a relative viability (MK-8033 + Navitoclax; first compound 0.2 µM) of 1.06. For the same cell line, the relative viability (MK-8033 + Navitoclax; first compound 0.6325 µM) was 1.01 and the relative viability (MK-8033 + Navitoclax; first compound 2 µM) was 1.07.
CAL-12T gave a relative viability (RU-SKI 43 + Crizotinib; first compound 0.1 µM) of 0.494, a relative viability (RU-SKI 43 + Crizotinib; first compound 0.3162 µM) of 0.747 and a relative viability (RU-SKI 43 + Crizotinib; first compound 1 µM) of 0.652. It also gave a relative viability (RU-SKI 43 + Crizotinib; first compound 3.162 µM) of 0.896, a relative viability (RU-SKI 43 + Crizotinib; first compound 10 µM) of 0.653 and a relative viability (RU-SKI 43 + Vorinostat; first compound 0.1 µM) of 0.77. For the same cell line, the relative viability (RU-SKI 43 + Vorinostat; first compound 0.3162 µM) was 0.89, the relative viability (RU-SKI 43 + Vorinostat; first compound 1 µM) was 0.909 and the relative viability (RU-SKI 43 + Vorinostat; first compound 3.162 µM) was 0.699. For the same cell line, the relative viability (RU-SKI 43 + Vorinostat; first compound 10 µM) was 0.692, the relative viability (MK-8033 + Olaparib; first compound 0.02 µM) was 0.61 and the relative viability (MK-8033 + Olaparib; first compound 0.06325 µM) was 0.692. For the same cell line, the relative viability (MK-8033 + Olaparib; first compound 0.2 µM) was 0.71, the relative viability (MK-8033 + Olaparib; first compound 0.6325 µM) was 0.718 and the relative viability (MK-8033 + Olaparib; first compound 2 µM) was 0.756. The relative viability (MK-8033 + Navitoclax; first compound 0.02 µM) was 1.19, the relative viability (MK-8033 + Navitoclax; first compound 0.06325 µM) was 1.2 and the relative viability (MK-8033 + Navitoclax; first compound 0.2 µM) was 1.15. It also gave a relative viability (MK-8033 + Navitoclax; first compound 0.6325 µM) of 0.92 and a relative viability (MK-8033 + Navitoclax; first compound 2 µM) of 1.28.
